Patent US20210236425A1, “NEW TREATMENT OF INTERSTITIAL LUNG DISEASES” (INIM PHARMA AB, priority 2018, published 2021)

How the values were obtained:
[1] = Dissolution kinetics in SLF, USP2 apparatus; format: physicochemical; conditions: SLF pH 7.4, 37° C., 5 mg in 500 mL
Method: The dissolution kinetics of the 3 different loading samples described in Example 5 were characterized in SLF (pH 7.4; made up with the salts NaCl, NaHCO3, KCl, MgCl2, CaCl2, Na2SO4, sodium citrate dihydrate, NaH2PO4 (all from Sigma)) at 37° C. using a USP2 dissolution apparatus with stirring speed 50 rpm. Free, unloaded thalidomide was used as control. Concentration of drug at set times after release was measured by a UV/vis spectrometer (Cecil 3021) at 220 nm.
The dose of thalidomide was calculated as 5 mg of thalidomide in 500 mL of SLF.

[2] = Dissolution kinetics in SLF with Tween 80, non-sink conditions; format: physicochemical; conditions: SLF with 1 wt % Tween 80, 80 mg dosage
Method: Given that thalidomide rapidly recrystallizes in solution, an experiment was conducted in the presence of a surfactant to stabilize the dissolved drug.
Tween 80 (1 wt %; Sigma) was added in the dissolution bath in SLF media. The dosage was increased to 80 mg to investigate the dissolution kinetics at high drug concentration, to simulate dissolution in non-sink conditions.

time in which Cmax was achieved [1]: 30 min | time to reach Cmax [2]: 30 min
SMILES: O=C1CCC(N2C(=O)c3ccccc3C2=O)C(=O)N1 (centres unmarked) [free drug, thalidomide]
